Measured values: patent US11077139B2, “Combination of an arsenic compound and at least one retinoid for treating acute myeloid leukemia” (INSERM (Institut National de la Sante et de la Recherche …, priority 2013, dated 2021)

Assays:
mutant NPM-1 = experiment: Western blot for NPM-1 and mutated NPM-1; type: cell-based
Description: Cells were solubilized at 4° C. in lysis buffer. […] Blots were incubated with specific antibodies, washed and proteins were visualized using the ECL chemiluminescence system (Santa Cruz, Germany). The following antibodies were used; monoclonal anti-wt NPM-1 (Abnova, Abcam), polyclonal anti-mutated NPM-1 (Abnova), anti-actin (Santa-cruz, Germany) and anti-GAPDH (Abnova).

[1] = tested on: OCI-AML3 cells (mutated NPM-1); type: cell-based; conditions: addition of the proteasome inhibitor
Description: Cells were seeded at a density of 2×10^5/ml. Primary AML cells (from either peripheral blood or BM) were extracted following ficoll separation and cultured in MEM-α supplemented with 20% FBS and antibiotics. […] Cell growth was assessed using the CellTiter 96® cell proliferation assay kit (Promega Corp., Madison, Wis., USA) or by trypan blue dye assay.
Proliferation experiments on cell lines were repeated at least three times. Data are reported as the mean+/−standard error. […] CI was used to assess synergistic effects (CI<1), additive effects (CI=1) or antagonistic effects (CI>1). Two statistical tests were performed to validate significance: the t-test and the one-way analysis of variance (ANOVA) test. *, ** and *** indicate p values≤0.05; 0.01 and 0.001, respectively. p-values less than 0.05 were considered significant.

Compound	effect on RA/arsenic-induced NPM-1 degradation (mutant NPM-1; addition of the proteasome inhibitor)	effect on RA/arsenic-induced growth arrest [1]	effect of pre-treatment on arsenic-induced degradation of mutant NPM-1 (mutant NPM-1; data not shown)
CC(C)C[C@H](NC(=O)[C@H](Cc1ccccc1)NC(=O)c1cnccn1)B(O)O [PS-341]	reversed	reversed	
interferon alpha			significantly accelerated
